Data as given in patent US20100256183A1, “FUNGICIDAL 2-ALKYLTHIO-2-QUINOLINYLOXY-ACETAMIDE DERIVATIVES” (priority 2007, published 2010).
Like-named read-outs stand apart in the source and are kept apart here.

Experiments:
Septoria nodorum = assay: Leaf disk assay, Septoria nodorum (wheat glume blotch); format: in vivo; conditions: for pest or weed control at 200 ppm: Parastagonospora nodorum, foliar, 96 h, read-out: control of fungal infection
Plasmopara viticola = assay: Leaf disk assay, Plasmopara viticola (downy mildew of grapevine); format: in vivo; conditions: foliar, 168 h, read-out: control of fungal infection
[1] = test system: Erysiphe graminis f.sp. tritici; assay: Leaf disk assay, Erysiphe graminis f.sp. tritici (wheat powdery mildew); format: in vivo; conditions: Blumeria graminis, foliar, 96 h, read-out: control of fungal infection
Phytophthora infestans = assay: whole plant or invertebrate; format: in vivo; conditions: in Solanum lycopersicum, foliar, 96 h, read-out: control of fungal infection
Pythium ultimum = Pythium ultimum (damping off) growth inhibition in potato dextrose broth, photometric; format: cell-based; conditions: Globisporangium ultimum, read-out: control of fungal infection
Pyricularia oryzae = assay: whole plant or invertebrate; format: in vivo; conditions: foliar, 96 h, read-out: control of fungal infection
[2] = 200 ppm, wheat leaf segments, preventive, four days after inoculation
[3] = 200 ppm, grapevine leaf disks, preventive, seven days after inoculation
[4] = 20 ppm, inhibition of growth after 48 hours at 24° C.
[5] = 20 ppm, preventive, four days after inoculation
[6] = 60 ppm, preventive, four days after inoculation
[7] = 200 ppm, preventive, four days after inoculation

Structure (SMILES) | pest or weed control at 200 ppm (Plasmopara viticola) | pest or weed control at 200 ppm [1] | pest or weed control at 200 ppm (Phytophthora infestans) | inhibition of growth at 20 ppm (Pythium ultimum; 48 h) | pest or weed control at 200 ppm (Pyricularia oryzae) | further results
CC#CC(C)(CC)NC(=O)C(Oc1cc(C)c2ncc(Br)cc2c1)SC (centres unmarked) [8(4), 2-(3-Bromo-8-methyl-quinolin-6-yloxy)-N-(1-ethyl-1-methyl-but-2-ynyl)-2-methylsulfanyl-acetamide] | ≥ 60% |  |  |  |  | pest or weed control at 200 ppm (Septoria nodorum): ≥ 60%
COCC#CC(C)(C)NC(=O)C(Oc1cc(C)c2ncc(Cl)cc2c1)SC (centres unmarked) [19(4), 2-(3-Chloro-8-methyl-quinolin-6-yloxy)-N-(4-methoxy-1,1-dimethyl-but-2-ynyl)-2-methylsulfanyl-acetamide] | ≥ 60% | ≥ 60% | ≥ 60% | ≥ 60% |  | 
CCc1cc(OC(SC)C(=O)NC(C)(C)C#CCOC)cc2cc(Br)cnc12 (centres unmarked) [35(4), 2-(3-Bromo-8-ethyl-quinolin-6-yloxy)-N-(4-methoxy-1,1-dimethyl-but-2-ynyl)-2-methylsulfanyl-acetamide] | ≥ 60% | ≥ 60% | ≥ 60% | ≥ 60% | ≥ 60% | pest or weed control at 200 ppm (Septoria nodorum): ≥ 60%
COCCC#CC(C)(C)NC(=O)C(Oc1cc(C)c2ncc(Br)cc2c1)SC (centres unmarked) [5(4), 2-(3-Bromo-8-methyl-quinolin-6-yloxy)-N-(5-methoxy-1,1-dimethyl-pent-2-ynyl)-2-methylsulfanyl-acetamide] | ≥ 60% | ≥ 60% | ≥ 60% | ≥ 60% |  | 
CCC#CC(C)(C)NC(=O)C(Oc1cc(C)c2ncc(Cl)cc2c1)SC (centres unmarked) [20(4), 2-(3-Chloro-8-methyl-quinolin-6-yloxy)-N-(1,1-dimethyl-pent-2-ynyl)-2-methylsulfanyl-acetamide] |  |  | ≥ 60% |  |  | 
C#CC(C)(NC(=O)C(Oc1cc(C)c2ncc(Br)cc2c1)SC)C(C)C (centres unmarked) [12(4), 2-(3-Bromo-8-methyl-quinolin-6-yloxy)-N-(1-isopropyl-1-methyl-prop-2-ynyl)-2-methylsulfanyl-acetamide] |  |  |  |  |  | pest or weed control at 200 ppm (Septoria nodorum; [2]): ≥ 60%; pest or weed control at 200 ppm (Plasmopara viticola; [3]): ≥ 60%
C#CC(C)(CC)NC(=O)C(Oc1cc(C)c2ncc(Br)cc2c1)SC (centres unmarked) [7(4), 2-(3-Bromo-8-methyl-quinolin-6-yloxy)-N-(1-ethyl-1-methyl-prop-2-ynyl)-2-methylsulfanyl-acetamide] |  |  |  |  | ≥ 60% | pest or weed control at 200 ppm [1, 2]: ≥ 60%; pest or weed control at 200 ppm (Septoria nodorum; [2]): ≥ 60%; pest or weed control at 200 ppm (Plasmopara viticola; [3]): ≥ 60%
CSC(Oc1cc(C)c2ncc(Br)cc2c1)C(=O)NC(C)(C)C#C/C=C/CO (centres unmarked) [24(4), 2-(3-Bromo-8-methyl-quinolin-6-yloxy)-N-((E)-6-hydroxy-1,1-dimethyl-hex-4-en-2-ynyl)-2-methylsulfanyl-acetamide] |  |  | ≥ 60% |  |  | pest or weed control at 200 ppm [1, 2]: ≥ 60%; inhibition of growth at 20 ppm (Pythium ultimum; [4]): ≥ 60%; pest or weed control at 200 ppm (Plasmopara viticola; [3]): ≥ 60%
CSC(Oc1cc(C)c2ncc(Br)cc2c1)C(=O)NC(C)(C)C#CCO (centres unmarked) [30(4), 2-(3-Bromo-8-methyl-quinolin-6-yloxy)-N-(4-hydroxy-1,1-dimethyl-but-2-ynyl)-2-methylsulfanyl-acetamide] |  | ≥ 60% | ≥ 60% | ≥ 60% | ≥ 60% | pest or weed control at 200 ppm (Septoria nodorum): ≥ 60%
COCC#CC(C)(C)NC(=O)C(Oc1cc(C)c2ncc(Br)cc2c1)SC (centres unmarked) [3(4), 2-(3-Bromo-8-methyl-quinolin-6-yloxy)-N-(4-methoxy-1,1-dimethyl-but-2-ynyl)-2-methylsulfanyl-acetamide] | ≥ 60% | ≥ 60% | ≥ 60% |  | ≥ 60% | pest or weed control at 200 ppm (Septoria nodorum): ≥ 60%
C#CC(C)(C)NC(=O)C(Oc1cc(C)c2ncc(Cl)cc2c1)SC (centres unmarked) [Compound 17(4), 2-(3-Chloro-8-methyl-quinolin-6-yloxy)-N-(1,1-dimethyl-prop-2-ynyl)-2-methylsulfanyl-acetamide] |  |  | ≥ 60% |  | ≥ 60% | pest or weed control at 200 ppm [1, 2]: ≥ 60%; inhibition of growth at 20 ppm (Pythium ultimum; [4]): ≥ 60%; Efficacy (%) (Septoria nodorum; [5]): 80%; Efficacy (%) (Septoria nodorum; [6]): 100%; Efficacy (%) (Septoria nodorum; [7]): 100%; pest or weed control at 200 ppm (Septoria nodorum; [2]): ≥ 60%; pest or weed control at 200 ppm (Plasmopara viticola; [3]): ≥ 60%
C=CCOCC#CC(C)(C)NC(=O)C(Oc1cc(C)c2ncc(Br)cc2c1)SC (centres unmarked) [28(4), N-(4-Allyloxy-1,1-dimethyl-but-2-ynyl)-2-(3-bromo-8-methyl-quinolin-6-yloxy)-2-methylsulfanyl-acetamide] |  | ≥ 60% | ≥ 60% | ≥ 60% |  | pest or weed control at 200 ppm (Septoria nodorum): ≥ 60%
COCOCC#CC(C)(C)NC(=O)C(Oc1cc(C)c2ncc(Br)cc2c1)SC (centres unmarked) [31(4), 2-(3-Bromo-8-methyl-quinolin-6-yloxy)-N-(4-methoxymethoxy-1,1-dimethyl-but-2-ynyl)-2-methylsulfanyl-acetamide] |  | ≥ 60% | ≥ 60% | ≥ 60% |  | 
CCOCC#CC(C)(C)NC(=O)C(Oc1cc(C)c2ncc(Br)cc2c1)SC (centres unmarked) [22(4), 2-(3-Bromo-8-methyl-quinolin-6-yloxy)-N-(4-ethoxy-1,1-dimethyl-but-2-ynyl)-2-methylsulfanyl-acetamide] | ≥ 60% |  |  |  |  | 
C#CC(C)(C)NC(=O)C(Oc1ccc2ncc(Cl)cc2c1)SC (centres unmarked) [Compound 1(23), reference compound] |  |  |  |  |  | Efficacy (%) (Septoria nodorum; [5]): 0%; Efficacy (%) (Septoria nodorum; [6]): 0%; Efficacy (%) (Septoria nodorum; [7]): 0%
C#CCOCC#CC(C)(C)NC(=O)C(Oc1cc(C)c2ncc(Br)cc2c1)SC (centres unmarked) [29(4), 2-(3-Bromo-8-methyl-quinolin-6-yloxy)-N-(1,1-dimethyl-4-prop-2-ynyloxy-but-2-ynyl)-2-methylsulfanyl-acetamide] |  | ≥ 60% |  |  | ≥ 60% | 
CCC#CC(C)(C)NC(=O)C(Oc1cc(C)c2ncc(Br)cc2c1)SC (centres unmarked) [4(4), 2-(3-Bromo-8-methyl-quinolin-6-yloxy)-N-(1,1-dimethyl-pent-2-ynyl)-2-methylsulfanyl-acetamide] | ≥ 60% |  |  |  |  | 
CSC(Oc1cc(C)c2ncc(Br)cc2c1)C(=O)NC(C)(C)C#CC(C)(O)CCl (centres unmarked) [27(4), 2-(3-Bromo-8-methyl-quinolin-6-yloxy)-N-(5-chloro-4-hydroxy-1,1,4-trimethyl-pent-2-ynyl)-2-methylsulfanyl-acetamide] | ≥ 60% | ≥ 60% |  |  |  | 
COCCC#CC(C)(C)NC(=O)C(Oc1cc(C)c2ncc(Cl)cc2c1)SC (centres unmarked) [21(4), 2-(3-Chloro-8-methyl-quinolin-6-yloxy)-N-(5-methoxy-1,1-dimethyl-pent-2-ynyl)-2-methylsulfanyl-acetamide] | ≥ 60% | ≥ 60% | ≥ 60% | ≥ 60% |  | 
COCCOCCC#CC(C)(C)NC(=O)C(Oc1cc(C)c2ncc(Br)cc2c1)SC (centres unmarked) [25(4), 2-(3-Bromo-8-methyl-quinolin-6-yloxy)-N-[5-(2-methoxy-ethoxy)-1,1-dimethyl-pent-2-ynyl]-2-methylsulfanyl-acetamide] | ≥ 60% |  | ≥ 60% | ≥ 60% |  | 
CC#CC(C)(C)NC(=O)C(Oc1cc(CC)c2ncc(Br)cc2c1)SC (centres unmarked) [34(4), 2-(3-Bromo-8-ethyl-quinolin-6-yloxy)-N-(1,1-dimethyl-but-2-ynyl)-2-methylsulfanyl-acetamide] | ≥ 60% | ≥ 60% |  | ≥ 60% |  | 
COCCOCOCC#CC(C)(C)NC(=O)C(Oc1cc(C)c2ncc(Br)cc2c1)SC (centres unmarked) [32(4), 2-(3-Bromo-8-methyl-quinolin-6-yloxy)-N-[4-(2-methoxy-ethoxymethoxy)-1,1-dimethyl-but-2-ynyl]-2-methylsulfanyl-acetamide] | ≥ 60% | ≥ 60% | ≥ 60% |  |  | 
C#CC(C)(C)NC(=O)C(Oc1cc(CC)c2ncc(Br)cc2c1)SC (centres unmarked) [33(4), 2-(3-Bromo-8-ethyl-quinolin-6-yloxy)-N-(1,1-dimethyl-prop-2-ynyl)-2-methylsulfanyl-acetamide] |  |  |  |  | ≥ 60% | pest or weed control at 200 ppm [1, 2]: ≥ 60%; inhibition of growth at 20 ppm (Pythium ultimum; [4]): ≥ 60%; pest or weed control at 200 ppm (Septoria nodorum; [2]): ≥ 60%; pest or weed control at 200 ppm (Plasmopara viticola; [3]): ≥ 60%
C#CC(C)(C)NC(=O)C(Oc1cc(C)c2ncc(Br)cc2c1)SC (centres unmarked) [2(4), 2-(3-Bromo-8-methyl-quinolin-6-yloxy)-N-(1,1-dimethyl-prop-2-ynyl)-2-methylsulfanyl-acetamide] |  |  | ≥ 60% |  | ≥ 60% | pest or weed control at 200 ppm [1, 2]: ≥ 60%; inhibition of growth at 20 ppm (Pythium ultimum; [4]): ≥ 60%; pest or weed control at 200 ppm (Septoria nodorum; [2]): ≥ 60%; pest or weed control at 200 ppm (Plasmopara viticola; [3]): ≥ 60%
CC#CC(C)(C)NC(=O)C(Oc1cc(C)c2ncc(Cl)cc2c1)SC (centres unmarked) [18(4), 2-(3-Chloro-8-methyl-quinolin-6-yloxy)-N-(1,1-dimethyl-but-2-ynyl)-2-methylsulfanyl-acetamide] | ≥ 60% | ≥ 60% | ≥ 60% | ≥ 60% | ≥ 60% | pest or weed control at 200 ppm (Septoria nodorum): ≥ 60%
